The source made the active and inactive calls. The calls are words filed in the database; no cut-off is given here.

The test system of data set [1] is Influenza A virus. The data set can be described thus: Antiviral activity against Influenza A virus A/WSN/1933 (H1N1) infected in MDCK cells assessed as protection against virus induced cytopathic effect after 40 hrs by Celltiter-Glo assay. Type of data set: functional, organism-based. For orientation: Protection from cytopathic effect is a common read-out in antiviral testing.

Data set [2] in a line: Cytotoxicity against MDCK cells after 40 hrs by Celltiter-Glo assay. Particulars: dog. It counts as cell-based, Canis lupus familiaris. (In general: In ATP-based viability assays light output follows the ATP content of the culture.)
The test system of data set [3] is Influenza A virus. Put plainly: Antiviral activity against Influenza A virus A/WSN/33 (H1N1) infected in dog MDCK cells assessed as inhibition of viral nucleoprotein synthesis after 6 hrs by DAPI staining based immunofluorescence microscopy. It counts as functional, organism-based. The note with it: A/WSN/1933(H1N1).
Data set [4] has as its system Influenza A virus. Put plainly: Antiviral activity against Influenza A virus A/WSN/33 (H1N1) infected in human A549 cells assessed as inhibition of (-)vRNA production after 7 hrs by qRT-PCR analysis. It counts as functional, organism-based. The note with it: A/WSN/1933(H1N1). (In general: In qPCR the cycle at which signal appears reflects the starting amount.)
In data set [5] the test system is Influenza A virus. Put plainly: Antiviral activity against Influenza A virus A/WSN/33 (H1N1) assessed as inhibition of viral infection in dog MDCK cells at 50 uM after 36 hrs. It counts as functional. The note with it: A/WSN/1933(H1N1).
Data set [6] concerns Influenza A virus (A/WSN/1933(H1N1)). The data set can be described thus: (§1) Binding affinity to Influenza A virus A/WSN/33 (H1N1) HA1 protein by surface plasmon resonance assay.
Data set [7] shares this test system. Put plainly: Binding affinity to Influenza A virus A/WSN/33 (H1N1) HA1 protein assessed as decrease in protein affinity to sialic acid receptor at 10 uM by surface plasmon resonance assay.
For data set [8], the system named is Influenza A virus. The data set can be described thus: Antiviral activity against Influenza A virus A/WSN/33 (H1N1) infected in human A549 cells assessed as inhibition of (+)cRNA production after 7 hrs by qRT-PCR analysis. Type of data set: functional, organism-based. The note with it: A/WSN/1933(H1N1).
Data set [9] in a line: Binding affinity to Influenza A virus A/WSN/33 (H1N1) HA1 protein assessed as decrease in protein affinity to sialic acid receptor by measuring dissociation constant by surface plasmon resonance assay (reference value: 0.001473/Ms). Also on record: species or system Influenza A virus (A/WSN/1933(H1N1)).
Data set [10] in a line: Binding affinity to Influenza A virus H3N2 HA3 protein by surface plasmon resonance assay.
Data set [11] deals with Influenza A virus (A/WSN/1933(H1N1)). The data set can be described thus: Binding affinity to Influenza A virus A/WSN/33 (H1N1) HA1 protein assessed as decrease in protein affinity to sialic acid receptor at 5 uM by surface plasmon resonance assay.
Data set [12] concerns Influenza A virus. The data set can be described thus: Antiviral activity against Influenza A virus A/WSN/33 (H1N1) infected in dog MDCK cells assessed as reduction in nucleoprotein level at 100 uM measured at 5 to 8 hrs by Western blot analysis relative to control. It counts as functional, organism-based. Particulars: A/WSN/1933(H1N1).
The subject of data set [13] is Influenza A virus (A/WSN/1933(H1N1)). The data set can be described thus: Inhibition of Influenza A virus A/WSN/33 (H1N1) HA1 protein assessed as inhibition of virus induced aggregation of chicken erythrocytes after 30 mins.
Data set [14] shares this test system. Put plainly: Binding affinity to Influenza A virus A/WSN/33 (H1N1) HA1 protein assessed as decrease in protein affinity to sialic acid receptor at 40 uM by surface plasmon resonance assay relative to control.
Data set [15] has the same test system. The data set can be described thus: Binding affinity to Influenza A virus A/WSN/33 (H1N1) HA1 protein assessed as decrease in protein affinity to sialic acid receptor at 1.25 uM by surface plasmon resonance assay.
The test system is the same in data set [16]. The data set can be described thus: Binding affinity to Influenza A virus A/WSN/33 (H1N1) HA1 protein assessed as decrease in protein affinity to sialic acid receptor by measuring association constant by surface plasmon resonance assay (reference value: 20810/s).
Data set [17] deals with Influenza A virus. The data set can be described thus: Antiviral activity against Influenza A virus A/WSN/33 (H1N1) assessed as inhibition of viral infection in dog MDCK cells at 50 uM pretreated with virus for 30 mins followed by host cell inoculation for 1 hr measured after 36 hrs. Type of data set: functional. Particulars: A/WSN/1933(H1N1).
In data set [18] the test system is Influenza A virus. The data set can be described thus: Antiviral activity against Influenza A virus A/WSN/33 (H1N1) assessed as inhibition of viral infection in dog MDCK cells at 50 uM pretreated with cells for 30 mins followed by exposure to virus for 1 hr measured after 36 hrs. Particulars: A/WSN/1933(H1N1). Type of data set: functional.
The nature of data set [19]: Inhibition of Influenza A virus A/WSN/33 (H1N1) HA1 protein by surface plasmon resonance assay. Also on record: species or system Influenza A virus (A/WSN/1933(H1N1)).
Data set [20] deals with Influenza A virus. Put plainly: Antiviral activity against Influenza A virus A/WSN/33 (H1N1) infected in dog MDCK cells assessed as reduction in nucleoprotein level at 100 uM measured over 10 hrs by Western blot analysis relative to control. Particulars: A/WSN/1933(H1N1). It counts as functional, organism-based.
The next data set deals with A549. Put plainly: Binding affinity to Influenza A virus A/WSN/33 (H1N1) HA1 protein assessed as inhibition of virus attachment to human A549 cells at 10 to 50 uM after 1 hr by DAPI staining based immunofluorescence microscopic analysis. Type of data set: cell-based. The note with it: Influenza A virus (A/WSN/1933(H1N1)).
In another data set the test system is HeLa. The data set can be described thus: Binding affinity to Influenza A virus A/WSN/33 (H1N1) HA2 protein assessed as polykaryon formation in human HeLa cells preincubated with test compound for 15 mins followed by further test compound addition at pH 4.9 for 15 mins by crystal violet staining-based microscopic analysis. It counts as cell-based. Particulars: Influenza A virus (A/WSN/1933(H1N1)).

Data set [21] deals with Influenza A virus (A/WSN/1933(H1N1)). The data set can be described thus: Binding affinity to Influenza A virus A/WSN/33 (H1N1) HA1 protein assessed as decrease in protein affinity to sialic acid receptor at 2.5 uM by surface plasmon resonance assay.
Data set [22] concerns HEK-293T. Put plainly: Inhibition of Influenza A virus RNP infected in HEK293T cells assessed as decrease in ratio of Fluc to Rluc. Particulars: Influenza A virus (A/WSN/1933(H1N1)). Type of data set: cell-based.
Data set [23] can be described thus: Binding affinity to influenza B virus HA1 protein by surface plasmon resonance assay.
A further data set relates to Influenza B virus. The data set can be described thus: Antiviral activity against influenza B virus B/SZ/155 infected in dog MDCK cells assessed as inhibition of virus induced cytopathic effect after 40 hrs by Cell-Titer-Glo assay. Type of data set: functional, organism-based. Particulars: B/SZ/155, MDCK.
In data set [24] the test system is Influenza A virus (A/WSN/1933(H1N1)). Put plainly: Binding affinity to Influenza A virus A/WSN/33 (H1N1) HA1 protein assessed as decrease in protein affinity to sialic acid receptor at 0.625 uM by surface plasmon resonance assay.
The test system of data set [25] is Influenza A virus. Put plainly: Antiviral activity against Influenza A virus A/WSN/33 (H1N1) infected in human A549 cells assessed as inhibition of mRNA of M1 segment production after 7 hrs by qRT-PCR analysis. Type of data set: functional, organism-based. Particulars: A/WSN/1933(H1N1).
Data set [26] relates to Influenza A virus. Put plainly: Antiviral activity against Influenza A virus A/WSN/33 (H1N1) infected in dog MDCK cells assessed as reduction in nucleoprotein level at 100 uM measured at 2 to 5 hrs by Western blot analysis relative to control. Particulars: A/WSN/1933(H1N1). It counts as functional, organism-based.
Data set [27] concerns Influenza A virus. Put plainly: Antiviral activity against Influenza A virus A/WSN/33 (H1N1) infected in dog MDCK cells assessed as reduction in nucleoprotein level at 100 uM measured over 2 hrs by Western blot analysis relative to control. Type of data set: functional, organism-based. Particulars: A/WSN/1933(H1N1).
For data set [28], the system named is Influenza A virus (A/WSN/1933(H1N1)). The data set can be described thus: Binding affinity to Influenza A virus A/WSN/33 (H1N1) HA1 protein assessed as decrease in protein affinity to sialic acid receptor at 20 uM by surface plasmon resonance assay.
The test system of data set [29] is Influenza A virus. Put plainly: Antiviral activity against Influenza A virus A/WSN/33 (H1N1) infected in dog MDCK cells assessed as reduction in nucleoprotein level at 100 uM measured at 8 to 10 hrs by Western blot analysis relative to control. Type of data set: functional, organism-based. The note with it: A/WSN/1933(H1N1).
Data set [30] concerns HEK-293T. The data set can be described thus: Effect on renilla luciferase expressed in HEK293T cells at 6.25 to 50 uM after 48 hrs. Type of data set: cell-based.
Data set [31] is described as follows: Binding affinity to Influenza A virus A/WSN/33 (H1N1) HA1 protein assessed as decrease in protein affinity to sialic acid receptor by surface plasmon resonance assay (reference value: 70 nM). Also on record: species or system Influenza A virus (A/WSN/1933(H1N1)).
The nature of data set [32]: as §1. Also on record: species or system Influenza A virus (A/WSN/1933(H1N1)).

As a reminder, the IC50 is the midpoint of a concentration-inhibition curve. Broadly, the CC50 is the concentration giving 50% cytotoxicity. With `CCCc1c(Cl)c(O)c(Cl)c(O)c1Oc1c(Cl)c(O)c(Cl)c2c1C(=O)O[C@@H]2CC`, the IC50 in the data set on Influenza A virus [1] is 38.2 µM. In addition, the CC50 at 40 h in data set [2] was over 50 µM.
The like results for `CCCc1c(Cl)c(OC)cc(OC)c1Oc1c(Cl)c(O)c(Cl)c2c1C(=O)O[C@@H]2CC` were, in that order, 16.2 µM and over 50 µM.
The term inhibition denotes the relative decrease from the control value, in per cent. As usually defined, the EC50 is the concentration at which the effect is half-maximal. Turning to `CCCc1c(Cl)c(O)cc(OC)c1Oc1c(Cl)c(O)c(Cl)c2c1C(=O)O[C@@H]2CC`, the inhibition entry (with Influenza A virus [3]; with Influenza A virus [4]; in the data set with Influenza A virus [8]; in data set [13]; in the data set with Influenza A virus [25]) was “Dose-dependent effect” throughout. The inhibition at 50 µM in the data set on Influenza A virus [5] stood at 90%; with Influenza A virus [17] it was 40%; with Influenza A virus [18], 25%. Further, the results for the Ka in data set [6] and in [16] were 2.3 ×10⁴ /Ms and 3420 s⁻¹, respectively. For the same compound, the Activity amounted to 44.8 RU in [7]; 21 RU in [11]; 5.4 RU in data set [15]; 10.3 RU in [21]; 3.3 RU in data set [24]; 98.2 RU in data set [28]. Moreover, the Kd in data set [9] is 0.00187 M⁻¹ s⁻¹; in data set [10] it was 18 µM; in data set [23], 14 µM; in data set [31], 0.547 µM. Further, the result in the data set with Influenza A virus [12], in the data set with Influenza A virus [20], in the data set with Influenza A virus [26] and in the data set with Influenza A virus [27] was Active. Besides, the fold change (FC) in [14] stood at 8. Also, the IC50 (in data set [19]; with Influenza A virus [1]) was 6 µM throughout. Further, the inhibition result with A549 and with HEK-293T [22] was “Active” each time. Also, the outcome in the data set with HeLa, in the data set on Influenza A virus [29] and with HEK-293T [30] was inactive. For the same compound, the EC50 in the data set on Influenza B virus was found to be 32 µM. The compound further yielded a CC50 at 40 h in data set [2] of over 100 µM.
For the compound `CCCc1c(Cl)c(OC)c(Cl)c(OC)c1Oc1c(Cl)c(O)c(Cl)c2c1C(=O)O[C@@H]2CC`, in the data set with Influenza A virus [1], the IC50 was over 50 µM. In addition, the CC50 at 40 h in data set [2] was over 50 µM.
Consider `NC12CC3CC(CC(C3)C1)C2` [AMANTADINE], for which the half-inhibitory concentration (IC50) with Influenza A virus [1] stood at 13 µM. Besides, in the data set with Influenza B virus, the concentration for a half-maximal effect (EC50) was found to be 144 µM. This compound also gave a CC50 at 40 h in [2] of over 100 µM.
The compound `CCCc1cc(O)c(Cl)c(OC)c1Oc1c(Cl)c(O)c(Cl)c2c1C(=O)O[C@@H]2CC` yielded a Ka in data set [6] of 0.77 ×10⁴ /Ms. The compound further returned a Kd in data set [32] of 55 µM. Further, the half-inhibitory concentration (IC50) (in data set [19]; in the data set on Influenza A virus [1]) was 11.4 µM in each case. For the same compound, the half-maximal cytotoxic concentration (CC50) at 40 h in data set [2] is over 100 µM.
With `NC(=O)c1ncn([C@@H]2O[C@H](CO)[C@@H](O)[C@H]2O)n1` [RIBAVIRIN], in the data set on Influenza B virus, the EC50 was 4.28 µM. Besides, the half-maximal cytotoxic concentration (CC50) at 40 h in data set [2] is over 200 µM.
For `CCOC(=O)c1c(CSc2ccccc2)n(C)c2cc(Br)c(O)c(CN(C)C)c12` [UMIFENOVIR], the Activity is 48.7 RU in data set [7]; 20.7 RU in [11]; 1.2 RU in data set [15]; 7.5 RU in [21]; -1.8 RU in data set [24]; 102 RU in data set [28]. Further, the Kd was 0.0009582 M⁻¹ s⁻¹ in [9] and 0.081 µM in [31]. Further, the Ka in data set [16] came out at 11800 s⁻¹.
`CCCc1c(Cl)c(OC)cc(O)c1Oc1c(Cl)c(O)c(Cl)c2c1C(=O)O[C@@H]2CC`: the concentration for half-maximal inhibition (IC50) in the data set with Influenza A virus [1] was over 50 µM. Moreover, the CC50 at 40 h in data set [2] is over 50 µM.

Source of the values: ChEMBL document CHEMBL3769343, “Spiromastilactones: A new class of influenza virus inhibitors from deep-sea fungus” (Eur J Med Chem, 2016).
